Reference: US12497365B2, “4-pyridinyl formamide compound or derivative thereof, preparation method therefor, herbicidal composition and use thereof” (Qingdao Kingagroot Chemical Compound Co., Ltd., priority 2019, dated 2025)

Columns and labels:
Assay in all cases: Weeding effect in post-emergence stage
Type in all cases: in vivo
Conditions in all cases: active ingredient 2000 g/ha, 3 weeks after application, fresh weight control rate
[1] = test system: Abutilon theophrasti
How it was run: (§1)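 Post-emergence spray, 2-3 leaf stage; acetone/Tween 80 formulation + methyl oleate EC synergist (1.5 liter/ha); 125-2000 g/ha via spray tower. Greenhouse, 3 wk. Read-out: fresh weight growth control rate, graded by activity level.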

[2] = test system: Amaranthus retroflexus L.
How it was run: as §1

[3] = test system: Chenopodium album
How it was run: as §1

[4] = test system: Descurainia sophia
How it was run: as §1

Structure (SMILES) | Weeding effect, activity level (growth control rate), Abutilon theophrasti [1] | Weeding effect, activity level (growth control rate), Amaranthus retroflexus L. [2] | Weeding effect, activity level (growth control rate), Chenopodium album [3] | Weeding effect, activity level (growth control rate), Descurainia sophia [4]
Cn1nnnc1NC(=O)c1ccnc(-c2ccc(F)cc2)c1-c1ccccc1 [Compound 1-199] | 5 (Level 5: growth control rate is above 85%) | 5 (Level 5: growth control rate is above 85%) | 5 (Level 5: growth control rate is above 85%) | 5 (Level 5: growth control rate is above 85%)
COc1c(C(=O)Nc2nnnn2C)ccnc1-c1ccc(F)cc1 [Compound 1-200] | 5 (Level 5: growth control rate is above 85%) | 5 (Level 5: growth control rate is above 85%) | 5 (Level 5: growth control rate is above 85%) | 5 (Level 5: growth control rate is above 85%)
CCOc1c(C(=O)Nc2nnnn2C)ccnc1-c1ccc(F)cc1 [Compound 1-201] | 5 (Level 5: growth control rate is above 85%) | 5 (Level 5: growth control rate is above 85%) | 5 (Level 5: growth control rate is above 85%) | 5 (Level 5: growth control rate is above 85%)
Cn1nnnc1NC(=O)c1ccnc(-c2ccc(F)cc2)c1OCC(F)(F)F [Compound 1-202] | 5 (Level 5: growth control rate is above 85%) | 5 (Level 5: growth control rate is above 85%) | 5 (Level 5: growth control rate is above 85%) | 5 (Level 5: growth control rate is above 85%)
CSc1c(C(=O)Nc2nnnn2C)ccnc1-c1ccc(F)cc1 [Compound 1-203] | 5 (Level 5: growth control rate is above 85%) | 5 (Level 5: growth control rate is above 85%) | 5 (Level 5: growth control rate is above 85%) | 5 (Level 5: growth control rate is above 85%)
CCSc1c(C(=O)Nc2nnnn2C)ccnc1-c1ccc(F)cc1 [Compound 1-204] | 5 (Level 5: growth control rate is above 85%) | 5 (Level 5: growth control rate is above 85%) | 5 (Level 5: growth control rate is above 85%) | 5 (Level 5: growth control rate is above 85%)
Cn1nnnc1NC(=O)c1ccnc(-c2ccc(F)cc2)c1[S+](C)[O-] (stereo not shown) [Compound 1-205] | 5 (Level 5: growth control rate is above 85%) | 5 (Level 5: growth control rate is above 85%) | 5 (Level 5: growth control rate is above 85%) | 5 (Level 5: growth control rate is above 85%)
CC[S+]([O-])c1c(C(=O)Nc2nnnn2C)ccnc1-c1ccc(F)cc1 (stereo not shown) [Compound 1-206] | 5 (Level 5: growth control rate is above 85%) | 5 (Level 5: growth control rate is above 85%) | 5 (Level 5: growth control rate is above 85%) | 5 (Level 5: growth control rate is above 85%)
Cn1nnnc1NC(=O)c1ccnc(-c2ccc(F)cc2)c1S(C)(=O)=O [Compound 1-207] | 5 (Level 5: growth control rate is above 85%) | 5 (Level 5: growth control rate is above 85%) | 5 (Level 5: growth control rate is above 85%) | 5 (Level 5: growth control rate is above 85%)
CN(C)c1c(C(=O)Nc2nnnn2C)ccnc1-c1ccc(F)cc1 [Compound 1-208] | 5 (Level 5: growth control rate is above 85%) | 5 (Level 5: growth control rate is above 85%) | 5 (Level 5: growth control rate is above 85%) | 5 (Level 5: growth control rate is above 85%)
CC(C)=NOc1c(C(=O)Nc2nnnn2C)ccnc1-c1ccc(F)cc1 [Compound 1-209] | 5 (Level 5: growth control rate is above 85%) | 5 (Level 5: growth control rate is above 85%) | 5 (Level 5: growth control rate is above 85%) | 5 (Level 5: growth control rate is above 85%)
CCc1c(C(=O)Nc2nnnn2C)ccnc1-c1ccc(F)cc1 [Compound 1-210] | 5 (Level 5: growth control rate is above 85%) | 5 (Level 5: growth control rate is above 85%) | 5 (Level 5: growth control rate is above 85%) | 5 (Level 5: growth control rate is above 85%)
Cn1nnnc1NC(=O)c1ccnc(-c2ccc(F)cc2)c1SCCl [Compound 1-211] | 5 (Level 5: growth control rate is above 85%) | 5 (Level 5: growth control rate is above 85%) | 5 (Level 5: growth control rate is above 85%) | 5 (Level 5: growth control rate is above 85%)
Cn1nnnc1NC(=O)c1ccnc(-c2ccc(F)cc2)c1[N+](=O)[O-] [Compound 1-212] | 5 (Level 5: growth control rate is above 85%) | 5 (Level 5: growth control rate is above 85%) | 5 (Level 5: growth control rate is above 85%) | 5 (Level 5: growth control rate is above 85%)
Cn1nnnc1NC(=O)c1ccnc(-c2ccc(F)cc2)c1C#N [Compound 1-213] | 5 (Level 5: growth control rate is above 85%) | 5 (Level 5: growth control rate is above 85%) | 5 (Level 5: growth control rate is above 85%) | 5 (Level 5: growth control rate is above 85%)
COCc1c(C(=O)Nc2nnnn2C)ccnc1-c1ccc(F)cc1 [Compound 1-214] | 5 (Level 5: growth control rate is above 85%) | 5 (Level 5: growth control rate is above 85%) | 5 (Level 5: growth control rate is above 85%) | 5 (Level 5: growth control rate is above 85%)
